Measurements taken from patent US20250235566A1, “[…]-[…] LABELING PRECURSORS AND RA[…] THEREFROM” (Medianezia GmbH, priority 2021, published 2025).

Key:
Assay type in all cases: biochemical
[1] = target: T1, DPP8 (dipeptidylpeptidase VIII) (Homo sapiens, UniProt Q6V1X1); assay: DPP8 IC50 measurement with Ala-Pro-pNA substrate; conditions: Ala-Pro-pNA 300 μM, pH=7.4
T1 construct: made in house
Description: (§1) The rhFAP (fibroblast activation protein), PREP (prolyl endopeptidase), DPP4 (dipeptidylpeptidase IV), DPP8 (dipeptidylpeptidase VIII) and DPP 9 (dipeptidylpeptidase IX) enzymes were expressed before use in the in vitro assays and then purified.
(§2) IC50 measurements were conducted with the Infinite 200 instrument (Tecan Group Ltd.) and evaluated with the Magellan software.
(§3) The data were evaluated by GraFit 7 using a non-linear fit according to the following equation: […]
(§4) where y is the remaining enzyme activity compared to the non-inhibited sample, xis the final inhibitor concentration used in the assay, s is the slope factor and IC50 is the […] inhibitory concentration.
At least 8 concentrations of the FAP inhibitors examined were examined, with always the same DMSO concentration. The inhibitors were pre-incubated at 37° C. for 15 min before the Ala-Pro-pNA substrate was added. The release kinetics of pNA were measured at a wavelength of λex=405 nm for at least 10 min.

[2] = target: T2, PREP (prolyl endopeptidase) (Homo sapiens, UniProt P48147); assay: PREP IC50 measurement with N-succinyl-Gly-Pro-AMC substrate; conditions: N-succinyl-Gly-Pro-AMC 250 μM, pH=7.4
T2 construct: made in house
T2 sequence (P48147 1-710): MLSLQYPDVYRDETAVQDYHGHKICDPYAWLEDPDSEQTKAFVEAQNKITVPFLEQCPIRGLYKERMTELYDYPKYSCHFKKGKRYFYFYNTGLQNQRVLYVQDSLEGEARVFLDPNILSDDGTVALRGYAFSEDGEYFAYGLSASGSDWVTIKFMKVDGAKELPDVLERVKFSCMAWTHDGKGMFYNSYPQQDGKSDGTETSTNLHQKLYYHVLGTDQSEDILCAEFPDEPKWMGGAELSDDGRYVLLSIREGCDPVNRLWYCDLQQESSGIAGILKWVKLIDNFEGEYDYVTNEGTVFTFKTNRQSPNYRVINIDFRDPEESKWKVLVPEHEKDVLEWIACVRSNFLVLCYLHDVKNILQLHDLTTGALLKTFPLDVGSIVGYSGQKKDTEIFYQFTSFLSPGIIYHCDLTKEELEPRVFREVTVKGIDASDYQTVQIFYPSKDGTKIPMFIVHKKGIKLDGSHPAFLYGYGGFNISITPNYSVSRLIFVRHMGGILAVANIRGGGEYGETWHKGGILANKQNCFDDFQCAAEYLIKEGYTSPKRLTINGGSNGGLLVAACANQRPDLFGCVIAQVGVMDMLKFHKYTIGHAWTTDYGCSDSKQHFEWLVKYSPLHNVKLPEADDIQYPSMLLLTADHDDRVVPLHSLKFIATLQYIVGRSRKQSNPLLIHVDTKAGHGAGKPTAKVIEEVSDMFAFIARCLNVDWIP
Description: as §1, §2, §3, §4
(§5) 8 concentrations of the FAP inhibitors examined were examined, with always the same DMSO concentration. The inhibitors were pre-incubated at 37° C. for 15 min before the N-succinyl-Gly-Pro-AMC substrate was added. The release kinetics of AMC were measured at an excitation wavelength λex=380 nm and emission wavelength λem=465 nm for at least 10 min.

[3] = target: T3, DPP 9 (dipeptidylpeptidase IX) (Homo sapiens, UniProt Q86TI2); assay: DPP9 IC50 measurement with Ala-Pro-pNA substrate; conditions: Ala-Pro-pNA 150 μM, pH=7.4
T3 construct: made in house
T3 sequence (Q86TI2 whole entry, species assumed): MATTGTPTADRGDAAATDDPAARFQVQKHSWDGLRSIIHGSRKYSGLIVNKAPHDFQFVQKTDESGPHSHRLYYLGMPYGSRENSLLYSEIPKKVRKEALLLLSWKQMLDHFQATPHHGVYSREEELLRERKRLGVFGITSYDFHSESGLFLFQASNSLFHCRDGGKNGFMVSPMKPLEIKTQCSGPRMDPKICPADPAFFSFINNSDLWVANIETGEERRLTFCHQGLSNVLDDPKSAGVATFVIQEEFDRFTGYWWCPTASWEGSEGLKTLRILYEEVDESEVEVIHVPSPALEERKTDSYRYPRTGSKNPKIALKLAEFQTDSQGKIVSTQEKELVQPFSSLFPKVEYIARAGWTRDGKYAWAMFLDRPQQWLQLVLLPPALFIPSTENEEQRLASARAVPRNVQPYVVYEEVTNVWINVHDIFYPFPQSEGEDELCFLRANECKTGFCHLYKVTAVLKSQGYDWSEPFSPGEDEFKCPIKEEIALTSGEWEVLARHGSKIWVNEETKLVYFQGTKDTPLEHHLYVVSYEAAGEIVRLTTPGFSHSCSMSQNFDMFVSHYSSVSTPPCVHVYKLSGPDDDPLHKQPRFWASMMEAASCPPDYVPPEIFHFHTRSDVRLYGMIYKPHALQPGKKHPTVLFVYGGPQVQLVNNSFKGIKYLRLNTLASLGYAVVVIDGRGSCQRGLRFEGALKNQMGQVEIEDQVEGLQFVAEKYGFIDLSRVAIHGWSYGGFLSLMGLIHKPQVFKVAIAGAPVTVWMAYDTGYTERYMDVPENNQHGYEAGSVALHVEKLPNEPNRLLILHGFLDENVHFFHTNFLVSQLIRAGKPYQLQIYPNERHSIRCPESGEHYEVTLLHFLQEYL
Description: as §1, §2, §3, §4
(§6) At least 8 concentrations of the FAP inhibitors examined were examined, with always the same DMSO concentration. The inhibitors were pre-incubated at 37° C. for 15 min before the Ala-Pro-pNA substrate was added.

[4] = target: T4, DPP4 (dipeptidylpeptidase IV) (Homo sapiens, UniProt P27487); assay: DPP4 IC50 measurement with Ala-Pro-pNA substrate; conditions: Ala-Pro-pNA 25 μM, pH=7.4
T4 construct: made in house
T4 sequence (P27487 whole entry, species assumed): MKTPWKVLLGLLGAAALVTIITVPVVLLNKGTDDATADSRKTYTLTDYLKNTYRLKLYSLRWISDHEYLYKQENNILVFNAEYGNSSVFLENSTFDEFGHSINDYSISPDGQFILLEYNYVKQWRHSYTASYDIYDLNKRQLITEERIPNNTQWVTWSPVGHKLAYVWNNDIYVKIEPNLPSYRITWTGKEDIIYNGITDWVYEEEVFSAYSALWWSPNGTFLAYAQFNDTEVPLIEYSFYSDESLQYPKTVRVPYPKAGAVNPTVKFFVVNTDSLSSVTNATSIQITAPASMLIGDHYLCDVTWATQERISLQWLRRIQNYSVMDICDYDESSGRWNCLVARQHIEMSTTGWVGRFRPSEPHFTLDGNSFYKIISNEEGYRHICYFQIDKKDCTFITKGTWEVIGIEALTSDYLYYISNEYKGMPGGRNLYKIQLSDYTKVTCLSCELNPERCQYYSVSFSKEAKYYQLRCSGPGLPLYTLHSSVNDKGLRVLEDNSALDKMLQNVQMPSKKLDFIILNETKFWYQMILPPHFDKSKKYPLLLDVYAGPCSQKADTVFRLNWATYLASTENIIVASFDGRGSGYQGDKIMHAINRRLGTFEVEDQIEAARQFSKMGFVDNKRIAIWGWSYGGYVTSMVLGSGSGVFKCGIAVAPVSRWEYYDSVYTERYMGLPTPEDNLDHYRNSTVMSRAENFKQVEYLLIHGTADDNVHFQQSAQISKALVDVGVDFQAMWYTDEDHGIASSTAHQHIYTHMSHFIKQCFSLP
Description: as §1, §2, §3, §4, §6

[5] = target: T5, rhFAP (fibroblast activation protein) (Homo sapiens, UniProt Q12884); assay: FAP IC50 measurement with Z-Gly-Pro-AMC substrate; conditions: Z-Gly-Pro-AMC 50 μM, pH=8, 15 min pre-incubation at 37° C.
T5 construct: made in house
T5 sequence (Q12884 1-760): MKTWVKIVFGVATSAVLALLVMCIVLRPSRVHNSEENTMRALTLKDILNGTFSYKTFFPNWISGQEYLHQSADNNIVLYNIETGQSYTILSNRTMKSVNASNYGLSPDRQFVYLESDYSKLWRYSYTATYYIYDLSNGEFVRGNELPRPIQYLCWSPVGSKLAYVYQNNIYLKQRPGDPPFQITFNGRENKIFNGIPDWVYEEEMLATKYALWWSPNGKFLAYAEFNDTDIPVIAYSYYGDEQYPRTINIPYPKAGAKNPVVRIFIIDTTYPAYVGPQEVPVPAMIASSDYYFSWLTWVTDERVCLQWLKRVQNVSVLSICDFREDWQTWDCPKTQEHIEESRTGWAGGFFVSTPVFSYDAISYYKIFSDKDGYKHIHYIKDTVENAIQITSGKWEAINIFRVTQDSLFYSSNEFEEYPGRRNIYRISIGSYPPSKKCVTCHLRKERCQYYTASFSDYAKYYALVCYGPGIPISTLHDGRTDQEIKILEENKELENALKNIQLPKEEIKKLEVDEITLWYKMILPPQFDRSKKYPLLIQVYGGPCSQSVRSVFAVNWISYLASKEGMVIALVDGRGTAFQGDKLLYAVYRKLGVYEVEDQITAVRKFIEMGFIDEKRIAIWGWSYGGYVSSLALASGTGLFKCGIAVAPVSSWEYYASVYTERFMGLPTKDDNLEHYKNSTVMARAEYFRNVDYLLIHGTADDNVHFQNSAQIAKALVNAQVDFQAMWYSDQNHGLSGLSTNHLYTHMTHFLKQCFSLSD
Description: as §1, §2, §3, §4
as §5, with “Z-Gly-Pro-AMC” for “N-succinyl-Gly-Pro-AMC”, “Δem=465” for “λem=465”

T1 sequence (Q6V1X1 whole entry, species assumed): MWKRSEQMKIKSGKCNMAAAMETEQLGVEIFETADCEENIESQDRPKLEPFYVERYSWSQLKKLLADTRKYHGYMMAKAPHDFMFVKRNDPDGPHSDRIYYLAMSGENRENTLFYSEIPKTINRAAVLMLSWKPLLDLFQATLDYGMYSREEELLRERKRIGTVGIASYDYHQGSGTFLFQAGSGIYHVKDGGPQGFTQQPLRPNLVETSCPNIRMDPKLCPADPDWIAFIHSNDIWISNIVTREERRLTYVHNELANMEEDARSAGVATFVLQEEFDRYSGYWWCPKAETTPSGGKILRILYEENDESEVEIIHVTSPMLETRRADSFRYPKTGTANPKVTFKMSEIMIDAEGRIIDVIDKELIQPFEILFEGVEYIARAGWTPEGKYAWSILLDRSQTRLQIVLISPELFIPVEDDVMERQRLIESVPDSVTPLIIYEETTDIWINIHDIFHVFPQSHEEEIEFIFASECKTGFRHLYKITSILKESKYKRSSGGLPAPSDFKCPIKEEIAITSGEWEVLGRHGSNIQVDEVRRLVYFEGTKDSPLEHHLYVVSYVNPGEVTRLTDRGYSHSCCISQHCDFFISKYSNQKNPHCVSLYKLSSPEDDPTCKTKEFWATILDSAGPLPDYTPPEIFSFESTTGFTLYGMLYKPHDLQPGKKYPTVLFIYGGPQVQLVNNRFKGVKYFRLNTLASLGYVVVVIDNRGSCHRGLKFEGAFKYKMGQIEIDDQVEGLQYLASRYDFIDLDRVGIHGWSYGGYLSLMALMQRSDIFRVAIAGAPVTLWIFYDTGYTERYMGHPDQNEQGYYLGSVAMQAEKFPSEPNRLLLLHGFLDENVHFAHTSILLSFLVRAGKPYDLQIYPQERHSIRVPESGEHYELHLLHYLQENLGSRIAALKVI

CN(CC(=O)O)C1(CCCCC(=O)N[C@@H](CCC(=O)NCCCCOc2ccc3nccc(C(=O)NCC(=O)N4CC(F)(F)C[C@H]4C#N)c3c2)C(=O)NCCCCOc2ccc3nccc(C(=O)NCC(=O)N4CC(F)(F)C[C@H]4C#N)c3c2)CN(CC(=O)O)CCN(CC(=O)O)C1 [DATA^5m.Glu.(FAPi)2, 2,2′-(6-(5-(((S)-1,5-bis((4-((4-((2-((S)-2-cyano-4,4-difluoropyrrolidin-1-yl)-2-oxoethyl)carbamoyl)quinolin-6-yl)oxy)butyl)amino)-1,5-dioxopentan-2-yl)amino)-5-oxopentyl)-6-((carboxymethyl)(methyl)amino)-1,4-diazepane-1,4-diyl)diacetic acid]
IC50 [1]: 2220 ± 400 nM | IC50 [2]: 310 ± 60 nM | IC50 [3]: 770 ± 110 nM | IC50 [4]: 1570 ± 60 nM | IC50 [5]: 0.71 ± 0.05 nM

N#C[C@@H]1CC(F)(F)CN1C(=O)CNC(=O)c1ccnc2ccc(OCCCCNC(=O)CC[C@H](NC(=O)CN3CCN(CC(=O)O)CCN(CC(=O)O)CCN(CC(=O)O)CC3)C(=O)NCCCCOc3ccc4nccc(C(=O)NCC(=O)N5CC(F)(F)C[C@H]5C#N)c4c3)cc12 [DOTA.Glu.(FAPi)2, 2,2′,2″-(10-(2-(((S)-1,5-bis((4-((4-((2-((S)-2-cyano-4,4-difluoropyrrolidin-1-yl)-2-oxoethyl)carbamoyl)quinolin-6-yl)oxy)butyl)amino)-1,5-dioxopentan-2-yl)amino)-2-oxoethyl)-1,4,7,10-tetraazacyclododecan-1,4,7-triyl)triacetic acid]
IC50 [1]: 1030 ± 180 nM | IC50 [2]: 1000 ± 140 nM | IC50 [3]: 950 ± 110 nM | IC50 [4]: 540 ± 60 nM | IC50 [5]: 0.6 ± 0.04 nM

N#C[C@@H]1CC(F)(F)CN1C(=O)CNC(=O)c1ccnc2ccc(OCCCCNC(=O)CC[C@H](NC(=O)CCC(C(=O)O)N3CCN(CC(=O)O)CCN(CC(=O)O)CCN(CC(=O)O)CC3)C(=O)NCCCCOc3ccc4nccc(C(=O)NCC(=O)N5CC(F)(F)C[C@H]5C#N)c4c3)cc12 (stereo partly drawn) [DOTAGA.Glu.(FAPi)2, 2,2′,2″-(10-(4-(((S)-1,5-bis((4-((4-((2-((S)-2-cyano-4,4-difluoropyrrolidin-1-yl)-2-oxoethyl)carbamoyl)quinolin-6-yl)oxy)butyl)amino)-1,5-dioxopentan-2-yl)amino)-1-carboxy-4-oxobutyl)-1,4,7,10-tetraazacyclododecan-1,4,7-triyl)triacetic acid]
IC50 [1]: 29 ± 4 nM | IC50 [2]: 590 ± 100 nM | IC50 [3]: 83 ± 1.5 nM | IC50 [4]: 1190 ± 80 nM | IC50 [5]: 0.26 ± 0.04 nM

N#C[C@@H]1CC(F)(F)CN1C(=O)CNC(=O)c1ccnc2ccccc12 [UAMC1110, (S)—N-(2-(2-cyano-4,4′-difluoropyrrolidin-1-yl)-2-oxoethyl)quinoline-4-carboxamide, reference compound]
IC50 [1]: > 10000 nM
